From patent US20240050735A1, “SYSTEMS AND METHODS FOR TREATING AND INHIBITING WOUND INFECTIONS” (priority 2020, published 2024)
Counter-ions that a name gives are not always drawn.

Columns and labels:
[1] = tested on: MRSA biofilm-infected porcine skin wound; assay: Ex vivo anti-biofilm efficacy, standard plate counting assay; type: cell-based, Methicillin-resistant S. aureus (MRSA) USA300
Procedure: Same as previous tests, an ex vivo MRSA biofilm-infected porcine skin wound model was used here. First the biofilm treatment efficacy was tested when different current intensities were used with a fixed VAN loading concentration at 1 mg mL^−1. After a single treatment for 1 hour, wound tissues were incubated for 24 hours in a 37° C. incubator to allow VAN to take effect. After incubation, tissue samples were collected and evaluated for bacterial count using the standard plate counting assay for MRSA colony. […] Treating the biofilm with no current for 1 hour (only VAN diffusion) or a low current of 0.5 mA cm^−2 for 1 hour induced a minimal MRSA count reduction to 10^9.8 CFU g^−1 and 10^9.6 CFU g^−1, respectively. When 19 mA cm^−2, 38 mA cm^−2, and 75 mA cm^−2 were applied, MRSA count was further reduced to 10^8.6 CFU g^−1, 10^8.3 CFU g^−1 and 10^7.6 CFU g^−1, respectively (see FIGS. 5A and 5F). […] Because 75 mA cm^−2 had better anti-biofilm efficacy than other conditions, it was selected for the following tests.
The fetal pig skin samples (approximately 30×30 mm) were immersed in 10% (v/v) bleach for 5 minutes after hair removal. Then, skin samples were sterilized in 70% ethanol for 30 minutes. The surface of skin sample was further cleaned by 10% povidone-iodine and 70% isopropanol to prevent contamination. A 6-mm disposable biopsy punch was used to create an excisional wound. Samples were put into sterile 10-cm petri-dishes filled with sterile PBS (6 mL). The wound was then inoculated with 1×10^8 CFU mL^−1 MRSA bacteria solution (20 μL). The bacteria were allowed to grow in a 37° C. Heratherm™ compact microbiological incubator (ThermoFischer Scientific™, Waltham, Mass., USA) for 48 hours to form mature biofilms.
The HIC-based biofilm treatment system 100 embodiment shown in FIG. 18 was used to test electrical debridement treatment of high-intensity current on ex vivo MRSA biofilm infected skin wounds. The MRSA biofilm infected skin wound was sandwiched between anode and cathode HIC-based devices (i.e., the working device 104 and the counter device 106). To evaluate the anti-biofilm effect of high current intensity only, PBS (5 mL) was filled in both drug/buffer chamber 114 and PBS chamber 122 and then 0.5 mA cm^−2, 19 mA cm^−2, 38 mA cm^−2, and 75 mA cm^−2 was applied for 1 hour, respectively. The device/skin wound contact area was 0.502 cm^2. Skin samples were collected by 8-mm biopsy punch immediately after test or at 24 hours after testing. To evaluate the biofilm thickness before and after different treatments, samples were embedded in tissue freezing medium (OCT) and sectioned at 8 μm. After being imaged in microscope, the thickness of biofilms after different treatments were measured using ImageJ software. To evaluate the colony-forming unit (CFU) counts per gram of MRSA from infected skin wounds, samples were homogenized in PBS (10 mL) and diluted with PBS, and then transferred to standard plate counting assay. The bactericidal efficacy was calculated as follows:
The HIC-based biofilm treatment system 100 embodiment shown in FIG. 18 was used to evaluate combined biofilm treatment efficacy of electrical debridement and VAN delivery. To evaluate the anti-biofilm treatment efficacy of current intensity, 0 mA cm^−2 (passive diffusion) to 75 mA cm^−2 was applied on the HIC-based biofilm treatment system 100 with 1 mg mL^−1 VAN loaded in HIC-based working device 104, respectively. […] To further enhance the anti-biofilm efficacy of electrical debridement and high concentration delivery of VAN, two treatments were applied, named protocol #1 and protocol #2. Protocol #1 applied two treatments (treatment: 75 mA cm^−2 for 1 hour, 1 mg mL^−1 VAN loaded in HIC-based working device 104) separated by 6 hours. Protocol #2 applied two treatments (treatment same as Protocol #1) separated by 24 hours. CFU was counted 24 hours after last treatment using the standard spread counting assay. The bactericidal efficacy was calculated accordingly. […]

[2] = tested on: planktonic MRSA; assay: Time-killing test on planktonic MRSA in stationary phase; type: cell-based, Methicillin-resistant S. aureus (MRSA) USA300; settings: 10 mg mL^−1 VAN, 4-day incubation
Procedure: MRSA bacteria was cultured in LB media in a 37° C. water shaking bath overnight to reach the concentration of 1×10^8 CFU mL^−1. Then, they were diluted to 10^5 CFU mL^−1 in 96-well plates by adding different concentrations of VAN solutions. After incubation for 24 hours without shaking, MIC of VAN to inhibit MRSA growth was measured by a Biotek Synergy H1 hybrid multi-mode microplate reader (BioTek, Winooski, Vt., USA) at OD600. To evaluate the killing time of VAN to bacteria in stationary phase (1×10^8 CFU mL^−1), VAN powder was added to bacteria solution to obtain concentration of 1 mg mL^−1, 3 mg mL^−1, 5 mg mL^−1, and 10 mg mL^−1, respectively, while remaining MRSA concentration of 1×10^8 CFU mL^−1. After incubation in a 37° C. water bath for 1 day, 2 days, 3 days and 4 days, the CFU of MRSA cells was tested by the standard plate spread counting assay, respectively. The time-killing tests of DAP with different concentrations (0.1 mg mL^−1, 0.5 mg mL^−1, 1 mg mL^−1, and 5 mg mL^−1) on MRSA planktonic cells were also performed, with the incubation time up to 24 hours.

[3] = tested on: S. aureus biofilms; settings: cited from earlier work
[4] = tested on: S. aureus biofilms; settings: cited from earlier work; remark: listed apart in the source
[5] = conventional transdermal iontophoresis 0.31 mA cm^−2; cited from earlier work
[6] = tested on: S. aureus persister cells; settings: even at 100×MIC; cited from earlier work
[7] = 75 mA cm^−2 1 hour, 1 mg mL^−1 VAN, 24 hours after

SMILES: CN[C@H](CC(C)C)C(=O)N[C@H]1C(=O)N[C@@H](CC(N)=O)C(=O)N[C@H]2C(=O)N[C@H]3C(=O)N[C@H](C(=O)N[C@H](C(=O)O)c4cc(O)cc(O)c4-c4cc3ccc4O)[C@H](O)c3ccc(c(Cl)c3)Oc3cc2cc(c3O[C@@H]2O[C@H](CO)[C@@H](O)[C@H](O)[C@H]2O[C@H]2C[C@](C)(N)[C@H](O)[C@H](C)O2)Oc2ccc(cc2Cl)[C@H]1O [VAN, Vancomycin hydrochloride]
- bactericidal efficacy ([1]; 0.5 mA cm^−2 1 hour, 1 mg mL^−1 VAN, 24 hours after): 4.4±2.76 times
- bactericidal efficacy ([1]; 19 mA cm^−2 1 hour, 1 mg mL^−1 VAN, 24 hours after): 57.8±50.30 times
- bactericidal efficacy ([1]; 38 mA cm^−2 1 hour, 1 mg mL^−1 VAN, 24 hours after): 81.4±13.34 times
- bactericidal efficacy [1, 7]: 452.8±115.32 times
- bactericidal rate [1, 7]: 99.8%
- bactericidal efficacy ([1]; 75 mA cm^−2 1 hour, 3 mg mL^−1 VAN loading): 112.6±13.58 times
- bactericidal efficacy ([1]; 75 mA cm^−2 1 hour, 5 mg mL^−1 VAN loading): 5.1±3.80 times
- bactericidal efficacy ([1]; 75 mA cm^−2 1 hour, 10 mg mL^−1 VAN loading): 9.7±2.92 times
- bactericidal efficacy ([1]; passive diffusion 1 hour, 1 mg mL^−1 VAN, 24 hours after): 2.7±2.06 times
- MRSA bacterial count reduction in wound tissue ([1]; single 1 hour treatment, 75 mA cm^−2, 1 mg mL^−1 VAN): 2.6 login scales
- bacterial count after incubation (from 10^8 CFU g^−1) [2]: 10^6 CFU g^−1
- diffusion coefficient in S. aureus biofilms ([3]; 2012 study): 0.2 μm 2 s^−1
- slower than its diffusion in water ([3]; S. aureus biofilms): more than 1,000 times
- biofilm bacterial density reduction ([4]; 2 mA (0.17 mA cm^−2) for 24 hours with 32 μg mL^−1 vancomycin): 1 log10 scale
- antibacterial effect ([4]; vancomycin alone): no antibacterial effect
- permeation coefficient (Pc) [5]: 2.21e+11 ×10⁻⁶ cm/s
- killing of S. aureus persister cells [6]: not capable of killing
